The record followed here is patent US20130096156A1 (priority 2010, published 2013).

Like-named read-outs stand apart in the source and are kept apart here.

The test system of one series is Phytophthora infestans. The series is described as follows: whole plant or invertebrate. The format is in vivo. To be noted: in Solanum lycopersicum, foliar, read-out: inhibit fungal infestation (percent disease control compared to untreated).
Series [1] relates to Blumeria graminis f. sp. tritici (Erysiphe graminis f. sp. tritici). The series is described as follows: Blumeria graminis f. sp. tritici / wheat / leaf disc preventative (powdery mildew on wheat). As to conditions: foliar, wheat leaf segments cv. Kanzler, inoculated 1 day after application, assessed 6-8 days after application, read-out: inhibit fungal infestation (percent disease control compared to untreated). The format is in vivo. As for the experimental part: (§1) Leaf disks of various plant species (diameter 14 mm) are cut from plants grown in the greenhouse. The cut leaf disks are placed in multiwell plates (24-well format) onto water agar. Immediately after cutting the leaf disks are sprayed with a test solution.
(§2) Compounds to be tested are prepared as DMSO solutions (max. 10 mg/ml). Just before spraying the solutions are diluted to the appropriate concentrations with 0.025% Tween20. After drying, the leaf disks are inoculated with a spore suspension of the appropriate pathogenic fungus.
(§3) After an incubation time of 3-7 days after inoculation at defined conditions (temp, rH, light, etc.) according to the respective test system, the activity of the test compound is assessed as antifungal activity.
Wheat leaf segments cv. Kanzler are placed on agar in a multiwell plate (24-well format) and sprayed with the formulated test compound diluted in water. The leaf disks are inoculated by shaking powdery mildew infected plants above the test plates 1 day after application. The inoculated leaf disks are incubated at 20° C. and 60% rh under a light regime of 24 h darkness followed by 12 h light/12 h darkness in a climate chamber and the activity of a compound is assessed as percent disease control compared to untreated when an appropriate level of disease damage appears on untreated check leaf segments (6-8 days after application).

The test system of series [2] is Phaeosphaeria nodorum (Septoria nodorum). The series can be described thus: Phaeosphaeria nodorum (Septoria nodorum) / wheat / leaf disc preventative (glume blotch). The format is in vivo. To be noted: Parastagonospora nodorum, foliar, wheat leaf segments cv. Kanzler, inoculated 2 days after application, assessed 5-7 days after application, read-out: inhibit fungal infestation (percent disease control compared to untreated). As to the method: as §1, §2, §3
Wheat leaf segments cv. Kanzler are placed on agar in a multiwell plate (24-well format) and sprayed with the formulated test compound diluted in water. The leaf disks are inoculated with a spore suspension of the fungus 2 days after application. The inoculated test leaf disks are incubated at 20° C. and 75% rh under a light regime of 12 h light/12 h darkness in a climate cabinet and the activity of a compound is assessed as percent disease control compared to untreated when an appropriate level of disease damage appears in untreated check leaf disks (5-7 days after application).

The subject of the next series is Pythium ultimum. The series is described as follows: Pythium ultimum / liquid culture (seedling damping off). Type of series: cell-based. To be noted: Globisporangium ultimum, liquid culture in PDB, 24° C., 2-3 days after application, read-out: inhibit fungal infestation (inhibition of growth determined photometrically). As for the experimental part:
Mycelia fragments or conidia suspensions of a fungus, prepared either freshly from liquid cultures of the fungus or from cryogenic storage, are directly mixed into nutrient broth. DMSO solutions of the test compound (max. 10 mg/ml) is diluted with 0.025% Tween20 by factor 50 and 10 μl of this solution is pipetted into a microtiter plate (96-well format) and the nutrient broth containing the fungal spores/mycelia fragments is then added to give an end concentration of the tested compound. The test plates are incubated at 24° C. and 96% rH in the dark. The inhibition of fungal growth is determined photometrically after 2-6 days and antifungal activity is calculated.
Mycelia fragments and oospores of a newly grown liquid culture of the fungus are directly mixed into nutrient broth (PDB potato dextrose broth). After placing a (DMSO) solution of test compound into a microtiter plate (96-well format), the nutrient broth containing the fungal mycelia/spore mixture is added. The test plates are incubated at 24° C. and the inhibition of growth is determined photometrically 2-3 days after application.

For the next series, the system named is Plasmopara viticola. The series is described as follows: Plasmopara viticola / grape / leaf disc preventative. The format is in vivo. As to conditions: foliar, grape vine leaf disks, inoculated 1 day after application, assessed 6-8 days after application, read-out: inhibit fungal infestation (percent disease control compared to untreated). As to the method: as §1, §2, §3
Grape vine leaf disks are placed on water agar in multiwell plates (24-well format) and sprayed with the formulated test compound diluted in water. The leaf disks are inoculated with a spore suspension of the fungus 1 day after application. The inoculated leaf disks are incubated at 19° C. and 80% rh under a light regime of 12 h light/12 h darkness in a climate cabinet and the activity of a compound is assessed as percent disease control compared to untreated when an appropriate level of disease damage appears in untreated check leaf disks (6-8 days after application).

`C#CC(C)(COC)NC(=O)C(Oc1cc(C)c2ncc(C)cc2c1)SC` (stereo not drawn) [Compound 10, 2-(3,8-Dimethyl-quinolin-6-yloxy)-N-(1-methoxymethyl-1-methyl-prop-2-ynyl)-2-methylsulfanyl-acetamide] came in with a melting point of 119 to 120 °C. Further, the inhibition at 200 ppm in the series on Phytophthora infestans was at least 80%. Also, in series [1], the inhibition at 200 ppm is at least 80%. Moreover, the inhibition at 200 ppm in series [2] is at least 80%. In the series on Pythium ultimum, the inhibition at 200 ppm was at least 80%.
As for `CO/N=C/C(C)(C)NC(=O)C(Oc1ccc2ncc(C)cc2c1)SC` (stereo not drawn) [Compound 12, N-(2-Methoxyimino-1,1-dimethyl-ethyl)-2-(3-methyl-quinolin-6-yloxy)-2-methylsulfanyl-acetamide], the melting point was 130 to 132 °C. Besides, in the series with Phytophthora infestans, the inhibition at 200 ppm was at least 80%. Besides, the inhibition at 200 ppm in the series on Plasmopara viticola is at least 80%. Further, the inhibition at 200 ppm in series [1] is at least 80%. Moreover, in the series on Pythium ultimum, the inhibition at 200 ppm is at least 80%.
`CCc1cnc2c(C)cc(OC(SC)C(=O)NC(C)(C)/C=N/OC)cc2c1` (stereo not drawn) [Compound 16, 2-(3-Ethyl-8-methyl-quinolin-6-yloxy)-N-(2-methoxyimino-1,1-dimethyl-ethyl)-2-methylsulfanyl-acetamide] displayed a melting point of 105 to 106 °C. Also, the inhibition at 200 ppm in the series on Phytophthora infestans was at least 80%. Further, in the series with Plasmopara viticola, the inhibition at 200 ppm is at least 80%. In series [1], the inhibition at 200 ppm was at least 80%. The inhibition at 200 ppm in series [2] is at least 80%. The inhibition at 200 ppm in the series on Pythium ultimum was at least 80%.
In the case of `CC#CC(C)(C)NC(=O)C(Oc1ccc2ncc(CC)cc2c1)SC` (stereo not drawn) [Compound 13, N-(1,1-Dimethyl-but-2-ynyl)-2-(3-ethyl-quinolin-6-yloxy)-2-methylsulfanyl-acetamide], the melting point lay in the range of 133 to 134 °C. Further, the inhibition at 200 ppm in the series with Phytophthora infestans is at least 80%. In addition, in the series on Plasmopara viticola, the inhibition at 200 ppm was at least 80%. Also, in series [1], the inhibition at 200 ppm is at least 80%. Besides, the inhibition at 200 ppm with Pythium ultimum was at least 80%.
Consider `CC#CC(C)(C)NC(=O)C(Oc1cc(F)c2ncc(CC)cc2c1)SC` (stereo not drawn) [Compound 15, N-(1,1-Dimethyl-but-2-ynyl)-2-(3-ethyl-8-fluoro-quinolin-6-yloxy)-2-methylsulfanyl-acetamide], for which the melting point was in the range of 151 to 153 °C. Also, in the series with Phytophthora infestans, the inhibition at 200 ppm is at least 80%. Also, the inhibition at 200 ppm with Plasmopara viticola is at least 80%. Also, the inhibition at 200 ppm in series [1] was at least 80%. Besides, in the series with Pythium ultimum, the inhibition at 200 ppm was at least 80%.
As for `CC#CC(C)(C)NC(=O)C(Oc1ccc2ncc(C)cc2c1)SC` (stereo not drawn) [Compound 3, N-(1,1-Dimethyl-but-2-ynyl)-2-(3-methyl-quinolin-6-yloxy)-2-methylsulfanyl-acetamide], the melting point fell in the range of 128 to 129 °C. In addition, in the series with Phytophthora infestans, the inhibition at 200 ppm is at least 80%. Besides, the inhibition at 200 ppm in the series with Plasmopara viticola is at least 80%. The inhibition at 200 ppm in series [1] was at least 80%. Further, in the series on Pythium ultimum, the inhibition at 200 ppm was at least 80%.
In the case of `C#CC(C)(C)NC(=O)C(Oc1ccc2ncc(C=C)cc2c1)SC` (stereo not drawn) [Compound 33, N-(1,1-Dimethyl-prop-2-ynyl)-2-methylsulfanyl-2-(3-vinyl-quinolin-6-yloxy)-acetamide], the melting point lay within 142 to 144 °C. In the series with Phytophthora infestans, the inhibition at 200 ppm was at least 80%. Further, in the series on Plasmopara viticola, the inhibition at 200 ppm was at least 80%. For the same compound, the inhibition at 200 ppm in series [1] is at least 80%. In addition, the inhibition at 200 ppm in series [2] was at least 80%. For the same compound, in the series with Pythium ultimum, the inhibition at 200 ppm was at least 80%.
`CSC(Oc1cc(C)c2ncc(C)cc2c1)C(=O)NC(C)(C)C` (stereo not drawn) [Compound 6, N-tert-Butyl-2-(3,8-dimethyl-quinolin-6-yloxy)-2-methylsulfanyl-acetamide] showed a melting point of 126 to 127 °C. The inhibition at 200 ppm with Phytophthora infestans is at least 80%. In the series with Plasmopara viticola, the inhibition at 200 ppm is at least 80%. The inhibition at 200 ppm in series [1] was at least 80%. The inhibition at 200 ppm in the series on Pythium ultimum was at least 80%.
As for `C#CC(C)(C)NC(=O)C(Oc1cc(C)c2ncc(CC)cc2c1)SC` (stereo not drawn) [Compound 18, N-(1,1-Dimethyl-prop-2-ynyl)-2-(3-ethyl-8-methyl-quinolin-6-yloxy)-2-methylsulfanyl-acetamide], the melting point fell in the range of 92 to 93 °C. For the same compound, in the series on Phytophthora infestans, the inhibition at 200 ppm was at least 80%. Also, the inhibition at 200 ppm with Plasmopara viticola is at least 80%. Further, the inhibition at 200 ppm in series [1] was at least 80%. Further, in series [2], the inhibition at 200 ppm is at least 80%. In the series with Pythium ultimum, the inhibition at 200 ppm was at least 80%.
`C#CC(C)(C)NC(=O)C(Oc1cc(Cl)c2ncc(CC)cc2c1)SC` (stereo not drawn) [Compound 25, 2-(8-Chloro-3-ethyl-quinolin-6-yloxy)-N-(1,1-dimethyl-prop-2-ynyl)-2-methylsulfanyl-acetamide] had a melting point of 149 to 151 °C. Moreover, in the series with Phytophthora infestans, the inhibition at 200 ppm is at least 80%. The inhibition at 200 ppm with Plasmopara viticola was at least 80%. For the same compound, the inhibition at 200 ppm in series [2] was at least 80%.
As for `CCc1cnc2c(Cl)cc(OC(SC)C(=O)NC(C)(C)/C=N/OC)cc2c1` (stereo not drawn) [Compound 24, 2-(8-Chloro-3-ethyl-quinolin-6-yloxy)-N-(2-methoxyimino-1,1-dimethyl-ethyl)-2-methylsulfanyl-acetamide], the melting point was 142 to 144 °C. In addition, the inhibition at 200 ppm with Phytophthora infestans is at least 80%. For the same compound, the inhibition at 200 ppm in the series on Plasmopara viticola is at least 80%. In addition, the inhibition at 200 ppm in series [1] was at least 80%. The inhibition at 200 ppm with Pythium ultimum was at least 80%.
Take `COCC#CC(C)(C)NC(=O)C(Oc1cc(C)c2ncc(C)cc2c1)SC` (stereo not drawn) [Compound 7, 2-(3,8-Dimethyl-quinolin-6-yloxy)-N-(4-methoxy-1,1-dimethyl-but-2-ynyl)-2-methylsulfanyl-acetamide]: the melting point fell in the range of 124 to 126 °C. Besides, the inhibition at 200 ppm in the series on Phytophthora infestans is at least 80%. Also, in the series on Plasmopara viticola, the inhibition at 200 ppm is at least 80%. In addition, the inhibition at 200 ppm in series [1] was at least 80%. Also, the inhibition at 200 ppm with Pythium ultimum was at least 80%.
The compound `C=Cc1cnc2c(F)cc(OC(SC)C(=O)NC(C)(C)/C=N/OC)cc2c1` (stereo not drawn) [Compound 37] returned a melting point of 105 to 107 °C. In addition, the inhibition at 200 ppm in the series on Phytophthora infestans was at least 80%. For the same compound, the inhibition at 200 ppm in the series with Plasmopara viticola was at least 80%. Besides, the inhibition at 200 ppm in series [1] (in Triticum aestivum) was at least 80%. Further, the inhibition at 200 ppm in series [2] (in Triticum aestivum) is at least 80%. Moreover, the inhibition at 200 ppm with Pythium ultimum is at least 80%.
In turn, `CSC(Oc1cc(C)c2ncc(C)cc2c1)C(=O)NC1(C)CCC1` (stereo not drawn) [Compound 9, 2-(3,8-Dimethyl-quinolin-6-yloxy)-N-(1-methyl-cyclobutyl)-2-methylsulfanyl-acetamide] yielded a melting point of 150 to 151 °C. In the series on Phytophthora infestans, the inhibition at 200 ppm is at least 80%. Moreover, the inhibition at 200 ppm in the series on Plasmopara viticola was at least 80%. Also, in series [1], the inhibition at 200 ppm is at least 80%. For the same compound, in the series on Pythium ultimum, the inhibition at 200 ppm is at least 80%.
`C#CC(C)(C)NC(=O)C(Oc1ccc2ncc(C)cc2c1)SC` (stereo not drawn) [Compound 2, N-(1,1-Dimethyl-prop-2-ynyl)-2-(3-methyl-quinolin-6-yloxy)-2-methylsulfanyl-acetamide] had a melting point of 132 to 134 °C. In the series on Phytophthora infestans, the inhibition at 200 ppm is at least 80%. Besides, in the series on Plasmopara viticola, the inhibition at 200 ppm is at least 80%. Moreover, in series [1], the inhibition at 200 ppm is at least 80%. In the series on Pythium ultimum, the inhibition at 200 ppm is at least 80%.
